Test results: US20250179047A1, “5-[7-(3,4-DIHYDRO-1H-ISOQUINOLINE-2-CARBONYL)-1,2,3,4 TETRAHYDROISOQUINOLIN-6-YL]-1H-PYRROLE-3-CARBOXAMIDE DERIVATIVES, PHARMACEUTICAL COMPOSITIONS CONTAINING THEM AND THEIR USES AS PRO-APOPTOTIC AGENTS” (LES LABORATOIRES SERVIER, priority 2022, published 2025)
Where two headings read alike, the source gives them in different places.

Legend:
BCL2 F104I = BCL2 F104I (Homo sapiens, UniProt P10415, F104I); assay: TR-FRET competitive binding assay, BCL2 F104I; conditions: Ki determined from IC50, read-out: TR_FRET EKI_Bcl2 F104I
Description: (§1) The relative binding potency of each compound was determined in a competitive binding assay using time resolved-fluorescence resonance energy transfer (TR-FRET). The method utilised a fluorescein labelled peptide derived from PUMA (5Flu-Ahx-[…]-NH2 wherein Ahx means 6-hexanoic acid monomer and the amino acid sequence is referred to as SEQ ID:01) which binds to a terbium labelled BCL2 or BCLXL protein. The degree of binding or corresponding compound inhibition can be quantified by the TR-FRET signal between the terbium donor and fluorescein acceptor.
(§2) The human BCL2_wild-type (also named BCL2_wt), BCL2_G101V mutant and BCLXL_wild-type were E. coli expressed as a N-terminal Halo-fusion proteins and singly labelled with Terbium on the Halo protein to afford the following amino acid sequences:
(§3) wherein the BCL2(1-207) sequence corresponds to UniProtKB® primary accession number P10415 and the BCLXL(2-196) sequence corresponds to UniProtKB® primary accession number Q07817-1.
(§4) The assay was performed in a 40 μL volume in white 384-standard well plates (Corning #3574). An 11-point serial dilution of each compound was prepared in DMSO and transferred directly to plate followed by addition of fluorescein labelled peptide and lastly protein. Final assay conditions were 0.5 nM BCL2_wt, BCL2_G101V, BCL2_D103Y, BCL2_F104I, BCL2_D111A or BCLXL_wt, 2 or 20 nM fluorescein labelled peptide, 50 mM Hepes pH 7.5, 150 mM NaCl, 0.5 mM TCEP (Tris(2-carboxyethyl)phosphine), 0.05% Tween 20, 5% DMSO. The mixture was incubated for 2 hours at 23° C.
(§5) TR-FRET measurements were performed on a Biotek Synergy Neo plate reader. TR-FRET was measured by excitation of the Terbium-donor at 340 nm and subsequent (delay time 100 μs) measurement of terbium and fluorescein emission at 495 nm and 520 nm, respectively, over a collection time of 300 μs. The TR-FRET signal was calculated as the emission-ratio at 520 nm over 495 nm.
(§6) The TR-FRET ratio readout for test compounds was normalized against 0% inhibition controls wells and 100% inhibition control wells. Test compound potency (IC50) was estimated by nonlinear regression using the sigmoidal dose-response (variable slope) using Xlfit 4 (IDBS, Guildford, Surrey, UK, model 205). Were the IC50 could not be determined the % inhibition at the highest tested concentration is given.
(§7) y=(A+((B−A)/(1+((C/x)^D))))
(§8) where y is the normalized TR-TRET ratio measurement for a given concentration of test compound, x is the concentration of test compound, A is the estimated efficacy (% inhibition) at infinite compound dilution, and B is the maximal efficacy (% inhibition). C is the IC50 value and D is the Hill slope coefficient.
(§9) The K1 values were determined from the IC50 values according to Cer et al, Nucleic Acids Res, 2009, July 1; 37 (WebServer issue): W441-W445.

BCL2 WT = BCL2 WT (Homo sapiens (Human), UniProt P10415); assay: TR-FRET competitive binding assay, BCL2 WT
How it was run: (§10)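 Ki derived from IC50 (11-point dilution, 520/495 nm emission ratio) for displacing a fluorescein-labelled PUMA peptide (2 or 20 nM). Target was 0.5 nM E. coli-expressed Halo-tagged BCL2 (1-207) or BCLXL (2-196), terbium-labelled on Halo. Incubation 2 h at 23°C in pH 7.5 Hepes with 150 mM NaCl and 5% DMSO.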

BCL2 G101V [1] = assay: TR-FRET competitive binding assay, BCL2 G101V; design: species or system human; conditions: for TR_FRET EKI G101V/WT selectivty ratio: ratio Ki BCL2 G101V / Ki BCL2 WT
How it was run: as §10

BCL2 G101V [2] = target: BCL2 G101V (Homo sapiens, UniProt P10415, G101V); assay: TR-FRET competitive binding assay, BCL2 G101V; conditions: BCL2 G101V; Ki determined from IC50; read-out: TR_FRET EKI_Bcl2 G101V
How it was run: as §10

KMS-12-PE Bcl-2 WT = assay: In vitro cytotoxicity CellTiter-Glo 48 h, KMS-12-PE Bcl-2 WT; type: cell-based; conditions: Homo sapiens, KMS-12-PE, C50 = concentration needed to reach 50% of the cellular viability
How it was run: (§11)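 Transduce KMS-12-PE with Bcl-2 WT or G101V lentivirus, then FACS-sort RFP-positive cells. Add compounds in an 11-point dilution series and incubate 48 h at 37 °C. Measure ATP-based luminescence with CellTiter-Glo and derive C50 (50% viability).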

BCL2 D103Y = BCL2 D103Y (Homo sapiens, UniProt P10415, D103Y); assay: TR-FRET competitive binding assay, BCL2 D103Y; conditions: Ki determined from IC50, read-out: TR_FRET EKI_Bcl2 D103Y
How it was run: as §10

BCL2 D111A = BCL2 D111A (Homo sapiens, UniProt P10415, D111A); assay: TR-FRET competitive binding assay, BCL2 D111A; conditions: Ki determined from IC50, read-out: TR_FRET EKI_Bcl2 D111A
Description: as §1, §2, §3, §4, §5, §6, §7, §8, §9

KMS-12-PE Bcl-2 G101V = assay: In vitro cytotoxicity CellTiter-Glo 48 h, KMS-12-PE Bcl-2 G101V; type: cell-based; conditions: for Ratio (G101V/WT): C50 KMS-12-PE Bcl-2 G101V over C50 KMS-12-PE Bcl-2 WT; for IC50: 48 h, CellTiter-Glo, C50 = concentration needed to reach 50% of the cellular viability
How it was run: as §11

BCLXL WT = BCLXL WT (Homo sapiens (Human), UniProt Q07817); assay: TR-FRET competitive binding assay, BCLXL WT; conditions: for Ki: BCLXL WT, Ki determined from IC50, read-out: TR_FRET EKI BclxL; for TR_FRET EKI BCLxL/WT selectivty ratio: ratio Ki BCLxL / Ki BCL2 WT
How it was run: as §10

[3] = Ki determined from IC50, read-out: TR_FRET EKI_Bcl2 WT

Sequence of BCLXL WT (Q07817 other isoform, or with tags, fused parts or gaps): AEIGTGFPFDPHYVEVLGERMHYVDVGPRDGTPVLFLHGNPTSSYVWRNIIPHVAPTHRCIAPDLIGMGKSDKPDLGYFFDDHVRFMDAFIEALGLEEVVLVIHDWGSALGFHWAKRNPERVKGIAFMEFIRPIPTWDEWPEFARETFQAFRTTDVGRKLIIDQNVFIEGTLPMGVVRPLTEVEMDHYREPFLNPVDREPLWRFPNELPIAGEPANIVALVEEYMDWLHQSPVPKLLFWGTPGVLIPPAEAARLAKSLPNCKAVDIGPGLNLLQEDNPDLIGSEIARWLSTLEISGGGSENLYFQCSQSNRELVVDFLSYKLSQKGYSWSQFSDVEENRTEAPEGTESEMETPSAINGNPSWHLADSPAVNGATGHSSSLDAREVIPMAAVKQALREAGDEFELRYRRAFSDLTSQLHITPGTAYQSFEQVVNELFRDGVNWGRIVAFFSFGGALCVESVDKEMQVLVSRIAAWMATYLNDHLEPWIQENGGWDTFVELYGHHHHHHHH

SMILES	Ki (BCL2 F104I)	Ki (BCL2 WT; [3])	TR_FRET EKI G101V/WT selectivty ratio (BCL2 G101V [1])	Ki (BCL2 G101V [2])	IC50 (KMS-12-PE Bcl-2 WT)	Ki (BCL2 D103Y)	Ki (BCL2 D111A)	Ratio (G101V/WT) (KMS-12-PE Bcl-2 G101V)	IC50 (KMS-12-PE Bcl-2 G101V; Homo sapiens, KMS-12-PE)	Ki (BCLXL WT)	TR_FRET EKI BCLxL/WT selectivty ratio (BCLXL WT)	Ki (BCL2 WT; Ki determined from IC50, read-out: TR_FRET EKI_Bcl2)	TR_FRET EKI G101V/WT selectivty (BCL2 G101V [1]; ratio of Ki BCL2 G101V to BCL2 WT)	TR_FRET EKI BCLxL/WT selectivty (BCLXL WT; ratio of Ki BCLxL to BCL2 WT)	IC50 (KMS-12-PE Bcl-2 G101V)
Cc1c(N(C(=O)c2cc(-c3cc4c(cc3C(=O)N3Cc5ccccc5C[C@H]3CN(C(C)C)C(C)C)CN(C(=O)Cc3ccc(OCCN5CCOCC5)cc3F)CC4)n(C)c2C)c2ccc(O)cc2)cc(C#N)n1C [Example 152, N-(5-cyano-1,2-dimethylpyrrol-3-yl)-5-(7-{[(3S)-3-[(diisopropylamino)methyl]-3,4-dihydro-1H-isoquinolin-2-yl]carbonyl}-2-(2-{2-fluoro-4-[2-(morpholin-4-yl)ethoxy]phenyl}acetyl)-3,4-dihydro-1H-isoquinolin-6-yl)-N-(4-hydroxyphenyl)-1,2-dimethylpyrrole-3-carboxamide]	640 pM	160 pM	6.9	1100 pM	0.0105 µM	410 pM	360 pM	3.5238	0.037 µM	3900 pM	24.4	–	–	–	–
Cc1c(N(C(=O)c2cc(-c3cc4c(cc3C(=O)N3Cc5ccccc5C[C@H]3C)CN(C(=O)Cc3ccc(OCCN5CCOCC5)cc3)CC4)n(C)c2C)c2ccccc2)cc(C#N)n1C [Example 236]	1120 pM	–	–	730 pM	0.00418 µM	786 pM	132 pM	–	–	4150 pM	–	78 pM	9.3	53.1	–
Cc1c(N(C(=O)c2cc(-c3cc4c(cc3C(=O)N3Cc5ccccc5C[C@H]3CN3CCCCC3)CN(C(=O)Cc3ccc(OCCN(C)CCF)cc3F)CC4)n(C)c2C)c2ccc(O)cc2)cc(C#N)n1C [Example 134, N-(5-cyano-1,2-dimethyl-1H-pyrrol-3-yl)-5-{2-[2-(2-fluoro-4-{2-[(2-fluoroethyl)(methyl)amino]ethoxy}phenyl)acetyl]-7-[(3S)-3-[(piperidin-1-yl)methyl]-1,2,3,4-tetrahydroisoquinoline-2-carbonyl]-1,2,3,4-tetrahydroisoquinolin-6-yl}-N-(4-hydroxyphenyl)-1,2-dimethyl-1H-pyrrole-3-carboxamide]	330 pM	60 pM	5.8	300 pM	0.0058 µM	180 pM	170 pM	4.6	0.0265 µM	2600 pM	45.6	–	–	–	–
Cc1c(N(C(=O)c2cc(-c3cc4c(cc3C(=O)N3Cc5ccccc5C[C@H]3CN3CCCCC3)CN(C(=O)Cc3ccc(OCC(C)N5CCOCC5)cc3)CC4)n(C)c2C)c2ccc(O)cc2)cc(C#N)n1C (single isomer, unassigned) [Example 127, N-(5-cyano-1,2-dimethyl-1H-pyrrol-3-yl)-N-(4-hydroxyphenyl)-1,2-dimethyl-5-[2-(2-{4-[(2S or R)-2-(morpholin-4-yl)propoxy]phenyl}acetyl)-7-[(3S)-3-[(piperidin-1-yl)methyl]-1,2,3,4-tetrahydroisoquinoline-2-carbonyl]-1,2,3,4-tetrahydroisoquinolin-6-yl]-1H-pyrrole-3-carboxamide]	260 pM	50 pM	4.3	200 pM	0.0077 µM	160 pM	130 pM	3.58	–	3600 pM	76.6	–	–	–	0.0277 µM
Cc1c(N(C(=O)c2cc(-c3cc4c(cc3C(=O)N3Cc5ccccc5C[C@H]3C)CN(C(=O)Cc3cccc(N5CCN(C)CC5)c3)CC4)n(C)c2C)c2ccccc2)cc(C#N)n1C [Example 3, N-(5-cyano-1,2-dimethylpyrrol-3-yl)-1,2-dimethyl-5-(7-{[(3R)-3-methyl-3,4-dihydro-1H-isoquinolin-2-yl]carbonyl}-2-{2-[3-(4-methylpiperazin-1-yl)phenyl]acetyl}-3,4-dihydro-1H-isoquinolin-6-yl)-N-phenylpyrrole-3-carboxamide]	1650 pM	30 pM	11.7	400 pM	0.0054 µM	120 pM	–	9.44	0.051 µM	1300 pM	43.3	–	–	–	–
Cc1c(N(C(=O)c2cc(-c3cc4c(cc3C(=O)N3Cc5ccccc5C[C@H]3C)CN(C(=O)COc3ccccc3)CC4)n(C)c2C)c2ccc(O)cc2)cc(C#N)n1C [Example 2, N-(5-cyano-1,2-dimethyl-1H-pyrrol-3-yl)-N-(4-hydroxyphenyl)-1,2-dimethyl-5-{7-[(3R)-3-methyl-1,2,3,4-tetrahydroisoquinoline-2-carbonyl]-2-(2-phenoxyacetyl)-1,2,3,4-tetrahydroisoquinolin-6-yl}-1H-pyrrole-3-carboxamide]	3080 pM	170 pM	3.0	500 pM	0.004 µM	1090 pM	–	5.04	0.02 µM	2100 pM	12.7	–	–	–	–
